Data set [1] in a line: Cleavage of the disulfide bond in the drug-linker conjugate (drug release with cysteine as a model of glutathione, monitored by HPLC). The data set is classed as physicochemical. The note with it: cysteine in buffer pH 7.0 / CH3CN, room temperature, after 2 hours. On the procedure: In order to confirm that the designed drug-release mechanism works under physiological conditions, a control experiment was performed using an anticancer linker drug conjugate and cysteine as a model of glutathione. The results of the experiment below provide clear evidence that the drug is released according to the desired mechanism of the invention.
To a solution of the drug-linker conjugate, 2′-(5-fluoro-2-methyldisulfanylphenyl)acetyl-3′-dephenyl-3′-(2-methylpropyl)-10-propanoyldocetaxel, (4.8 mg, 0.0045 mmol) in CH3CN (1.1 mL) was added cysteine (2.20 mg, 0.018 mmol) in buffer (pH 7.0, 0.56 mL) solution. The mixture was stirred at room temperature. The progress of the disulfide cleavage and drug release process was monitored by HPLC [Conditions: C-18 column. Flow rate: H2O, 0.6 mL/min; CH3CN, 0.4 mL/min., ambient temperature] periodically. The formations of thiolactone (5-fluoro-3H-benzo[b]thiophen-2-one) (retention time=9.05 min) and taxoid (3′-dephenyl-3′-(2-methylpropyl)-10-propanoyldocetaxel) (retention time=14.01 min) as well as the disappearance of the drug-linker conjugate (retention time=18.20 min) was clearly observed.

Usually melting point stands for the temperature of the solid-liquid transition. Regarding `CC(C)(CC(=O)O)c1ccccc1SSc1ccccn1` [Example 7, 3-Methyl-3-[2-(pyridine-2-yldisulfanyl)phenyl]butanoic acid], the melting point was in the range of 122 to 125 °C.

As to “2′-(5-fluoro-2-methyldisulfanylphenyl)acetyl-3′-dephenyl-3′-(2-methylpropyl)-10-propanoyldocetaxel”, the “disappearance of the drug-linker conjugate (disulfide cleavage and drug release: release of the taxoid, formation of the thiolactone)” value in data set [1] is on record as “completely disappeared”.

These data come from patent US7282590B2, “Drug conjugates” (The Research Foundation of State University of New York, priority 2004, dated 2007).
